We go through 27 compounds from PubChem BioAssay AID743128 (Broad Institute, 2013).

Where “and” joins values, the source holds several entries; their conditions need not be identical. Identical values can stand only once. Calls of active or inactive are those of the source.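 The calls were made as follows: active = compounds lowering the signal whose fitted half-maximal concentration is at most twice the top tested dose; inconclusive = flat curve with 30 to 70% inhibition, or poor fit; inactive = the rest.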

The test system of one experiment is C. neoformans growth, alamar blue, 24 h. The experiment is described as follows: antifungal activity, alamar blue, dry powder, counter-screen for C. neoformans cell wall antifungals, dose response (AID 743128).
Details: not given
For orientation: Alamar Blue is a resazurin reagent that responds to reducing activity.
What is called AC50 is the concentration at which the activity in the assay is half-maximal. On to `Cc1ccccc1OCCn1c(=S)[nH]c2ccccc21`, for which the AC50 is 8.04 µM.
Same read-out and setting: as for `Cc1ccc(OCCn2c(=S)[nH]c3ccccc32)cc1`, the figure is 9.48 µM; as for `S=c1[nH]c2ccccc2n1CCOc1ccccc1`, 24.9 µM; as for `Cc1ccc2c(c1)[nH]c(=S)n2CCOc1ccccc1`, 24.3 µM.
Same read-out and setting: then `S=c1[nH]c2cccc(Cl)c2n1CCOc1ccccc1`, with 6.35 µM; and `COC(=O)C1=C(C)N(Cc2ccc(Br)cc2)C(=S)NC1c1ccc(OC)cc1` (configuration not stated), with 9.31 µM; and `CCOc1ccc(OCCn2c(=S)[nH]c3ccccc32)cc1`, with 25.5 µM.
`CCOC(=O)c1c(-c2ccc(C(C)(C)C)cc2)csc1NC(=O)CN1CCN(CC)CC1`: the AC50 is 15.7 µM.
Still for that read-out and setting: then `S=c1[nH]c2ccccc2n1CCOc1ccc(Cl)cc1`, with 10.9 µM; and `COC(=O)C1=C(C)N(Cc2ccc(Br)cc2)C(=S)NC1c1ccc(F)cc1` (configuration not stated), with 4.9 µM.
The same measure, in the same setting: as for `Cc1ccc(OCCn2c(SCCO)nc3ccccc32)c(C(C)C)c1`, the figure is 25.1 µM; as for `Cc1ccc(OCCn2c(=S)[nH]c3ccccc32)c(C(C)C)c1`, 5.33 µM and 5.68 µM; as for `Fc1cccc2c1[nH]c(=S)n2CCOc1ccccc1`, 25.4 µM.
The same measure, in the same setting: as for `COC(=O)C1=C(C)N(Cc2ccccc2)C(=S)NC1c1ccc(Br)cc1` (configuration not stated), the figure is 8.1 µM.
In the case of `Fc1ccccc1OCCn1c(=S)[nH]c2ccccc21`, the half-maximal activity concentration (AC50) was 25.4 µM.
`COC(=O)C1=C(C)N(Cc2ccc(Cl)cc2)C(=S)NC1c1ccc(Br)cc1` (configuration not stated): the concentration at half-maximal activity (AC50) is 1.97 µM.
Same read-out and setting: then `CCOC(=O)c1c(-c2ccc(-c3ccccc3)cc2)csc1NC(=O)CNCCN(C)C`, with 21.7 µM; and `CCOC(=O)c1c(-c2ccc(C(C)(C)C)cc2)csc1NC(=O)CN1CCN(C)CC1`, with 15 µM.
The same measure, in the same setting: then `Cc1ccc(C(C)C)c(OCCn2c(=S)[nH]c3ccccc32)c1`, with 4.14 µM; and `CCOC(=O)c1c(NC(=O)CN2CCN(C)CC2)sc(C)c1-c1ccc(C)cc1`, with 25.7 µM.
`COC(=O)C1=C(C)N(Cc2ccc(F)cc2)C(=S)NC1c1cccc(F)c1` (configuration not stated): the AC50 is 18.3 µM.

Tested on in a further experiment: not listed separately
The experiment is described as above. The settings on record: C. neoformans growth, alamar blue, 24 h; at 35 µM (top of the series).
In the case of `c1ccc(OCCn2cnc3ccccc32)cc1`, the activity change, negative = inhibition is -10.7% (inactive).
The same measure, in the same setting: as for `O=c1[nH]c2ccccc2n1CCOc1ccccc1`, the figure is -1.57% (inactive) and -23.3% (inactive); as for `CCOC(=O)c1c(NC(=O)CNCCN(C)C)sc(C)c1-c1ccccc1`, -16.3% (inactive); as for `Cc1cccc(OCCn2c(=S)[nH]c3cc(C(F)(F)F)ccc32)c1`, 8.48% (inactive).
Consider `CCOC(=O)c1c(-c2ccc(F)cc2)csc1NC(=O)CN1CCN(C)CC1`, for which the activity change, negative = inhibition is -11.2% (inactive).
Same read-out and setting: as for `CCOC(=O)c1c(-c2ccc(OC)cc2)csc1NC(=O)CN(C)CC(=O)N(C)C`, the figure is -14.4% (inactive).
